# Results: publication PMC9234671, “Molecular determinants of αVβ5 localization in flat clathrin lattices – role of αVβ5 in cell adhesion and proliferation” (Journal of Cell Science, 2022)
# “Also recorded” adds a separate entry of the source.
# Tests used:
# Assay type in all cases: binding
# Numb-PTB (20-175) = target: T1, Numb-PTB (20-175) (Homo sapiens, UniProt P49757); test: Microscale thermophoresis (MST), Numb; settings: concentration range tested up to 50 µM for β1
# T1 construct: A pETNKI-6xhis-3C-Numb-PTB (20-175) construct was expressed in Rosetta2 (DE3) cells; 6xHis-3C (N, cleaved yes); made in house; host or cells: E. coli Rosetta2 (DE3)
# T1 sequence (P49757 20-175): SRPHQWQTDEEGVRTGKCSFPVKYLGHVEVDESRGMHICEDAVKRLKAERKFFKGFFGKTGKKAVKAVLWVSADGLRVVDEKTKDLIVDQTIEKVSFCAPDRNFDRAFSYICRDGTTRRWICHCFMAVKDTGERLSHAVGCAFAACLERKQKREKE
# Text: (§1) Fig. 2. Adaptor protein binding to integrin β subunits. (A) Colocalization of integrin chimeras fused to the promiscuous biotin ligase BirA* (green in merge) with vinculin (red; left panels) or clathrin (red; right panels) in PA-JEB/β4 keratinocytes. Actin is shown in blue. Nuclei are stained with DAPI (cyan). Scale bars: 20 μm. (B) Representative western blots of BioID assays performed using the integrin chimeras shown in A. Quantifications of ARH, Numb and talin signal intensities normalized to streptavidin-HRP levels are shown (n=3; bars show mean±s.d.). (C) Representative western blots of pulldown assays (from two repeats) using synthetic integrin β cytoplasmic domains in RAC-11P cell lysates.
# A pETNKI-6xhis-3C-Numb-PTB (20-175) construct was expressed in Rosetta2 (DE3) cells for 18 h at 20°C. Cells were lysed (25 mM Tris-HCl pH 8.0, 10 mM imidazole, 200 mM NaCl, 1 mM TCEP, 5 μg/ml DNase) and sonicated, after which insoluble proteins and cell debris were removed by centrifugation (21,000 g for 30 min at 4°C). Soluble lysate was applied to a nickel Sepharose column and beads were washed with wash buffer (lysis buffer without DNase) before protein was eluted in wash buffer supplemented with 250 mM imidazole. The 6xhis tag was cleaved off by his-3C protease during dialysis against 25 mM Tris-HCl pH 8.0, 100 mM NaCl, 1 mM TCEP, 16 h at 4°C. Elution fractions were pooled, diluted with six volumes of 20 mM HEPES pH 7.5, 1 mM TCEP and applied to a 1 ml Resource S cation-exchange column (Cytiva). Protein was eluted in a NaCl gradient (50–700 mM) in 25 mM HEPES (pH 7.5). 6xhis-Numb-PTB was concentrated and further purified by size-exclusion chromatography (SEC70 column, Bio-Rad) in 25 mM Tris-HCl pH 8.0, 200 mM NaCl and 1 mM TCEP.
# All MST measurements were performed on a Monolith NT.115 red-blue (Nanotemper, Munich, Germany) using premium-coated capillaries to reduce non-specific interaction of the proteins with the glass surface. […] Data was analyzed using the MO Affinity Analysis Software (Nanotemper).
# KANK-2 = test: Peptide pulldown, KANK-2; settings: desthiobiotin tail peptide on streptavidin beads, RAC-11P lysate, 4°C, 4 h; western blot; two repeats
# Procedure: (§2) Peptide pulldowns were carried out as previously described ([Böttcher et al., 2012]) with the mouse β1 wild-type cytoplasmic tail peptide ([…]-OH) and a scrambled peptide ([…]-OH), mouse β3 wild-type tail peptide ([…]-OH), mouse β5 wild-type tail peptide ([…]-OH), β5 Δ8aa tail peptide ([…]-OH) and scrambled peptide […].
# (§3) The tail peptides were synthesized de novo with a desthiobiotin on the N-terminus, coupled to Dynabeads MyOne streptavidin C1 (10 mgml^−1, Invitrogen) and incubated with RAC-11P cell lysates (prepared with M-PER reagent, Thermo Fisher Scientific) at 4°C with rotation for 4 h. After three washes with wash buffer (M-PER diluted 1:1 with PBS), bound proteins were eluted in 2× Laemmli buffer at 95°C for 5 min and separated on an 8% SDS-PAGE gel.
# talin = test: Peptide pulldown, talin; settings: desthiobiotin tail peptide on streptavidin beads, RAC-11P lysate, 4°C, 4 h; western blot; two repeats
# Procedure: as §2, §3
# ARH = test: Peptide pulldown, ARH; settings: desthiobiotin tail peptide on streptavidin beads, RAC-11P lysate, 4°C, 4 h; western blot; two repeats
# Procedure: as §2, §3
# full-length human ARH = target: T2, full-length human ARH (Homo sapiens, UniProt Q5SW96); test: Microscale thermophoresis (MST), ARH; settings: concentration range tested up to 50 µM for β1
# T2 construct: The full-length human ARH gene was cloned into the pETNKI-6xhis-3C-LIC vector; made in house; host or cells: E. coli BL21(DE3)
# T2 sequence (Q5SW96 1-308): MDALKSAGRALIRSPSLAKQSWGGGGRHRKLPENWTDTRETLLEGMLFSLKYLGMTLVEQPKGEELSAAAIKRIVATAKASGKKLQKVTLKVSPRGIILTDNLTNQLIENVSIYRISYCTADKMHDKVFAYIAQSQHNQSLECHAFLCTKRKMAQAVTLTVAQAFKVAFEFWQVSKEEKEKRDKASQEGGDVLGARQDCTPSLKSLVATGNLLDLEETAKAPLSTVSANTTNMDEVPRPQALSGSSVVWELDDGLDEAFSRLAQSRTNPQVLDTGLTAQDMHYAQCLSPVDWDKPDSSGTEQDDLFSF
# Text: as §1
# The full-length human ARH gene was cloned into the pETNKI-6xhis-3C-LIC vector ([Luna-Vargas et al., 2011]) and 6xhis–ARH protein was produced in Bl21(DE3) E. coli cells. Cells were grown at 37°C until an optical density at 600 nm (OD600) of 0.6 was reached. Temperature was reduced to 30°C and protein was expressed upon induction with 0.4 mM IPTG for 3.5 h. Cells were harvested and resuspended in lysis buffer (20 mM HEPES, pH 7.5, 200 mM NaCl, 1 mM TCEP and 5 μg ml^−1 DNase). After sonication, cell debris and insoluble proteins were removed by centrifugation (21,000 g for 30 min). 6xhis–ARH was purified from the soluble fraction using nickel Sepharose beads and eluted in 20 mM HEPES, pH 7.5, 200 mM NaCl, 1 mM TCEP and 250 mM imidazole. Fractions containing 6xhi–ARH were further purified on a SEC650 size exclusion column (Bio-Rad), equilibrated with 20 mM HEPES, pH 7.5, 100 mM NaCl and 1 mM TCEP.
# All MST measurements were performed on a Monolith NT.115 red-blue (Nanotemper, Munich, Germany) using premium-coated capillaries to reduce non-specific interaction of the proteins with the glass surface. Both interaction partners (ligand and receptor) were transferred into MST buffer (20 mM Tris-HCl pH 7.5, 200 mM sodium chloride, 1 mM TCEP and 0.05% Tween-20) to avoid artifacts derived from buffer mismatches. […] Data was analyzed using the MO Affinity Analysis Software (Nanotemper).
# Numb = test: Peptide pulldown, Numb; settings: desthiobiotin tail peptide on streptavidin beads, RAC-11P lysate, 4°C, 4 h; western blot; two repeats
# Procedure: as §2, §3
# kindlin-2 = test: Microscale thermophoresis (MST), kindlin-2; settings: titration of kindlin-2 to 200 nM ATTO488-labeled cytoplasmic tail peptide; n≥3
# Procedure: Kindlin-2 was expressed and purified as described in [Böttcher et al. (2017)]. Briefly, kindlin constructs were cloned into pCoofy17 ([Scholz et al., 2013]), which adds an N-terminal His10-Sumo tag and expressed soluble in E. coli Rosetta at 18°C overnight. After purification by immobilized-metal affinity chromatography (IMAC) in high-salt TBS buffer (20 mM Tris, pH 7.5, 500 mM NaCl, 1 mM TCEP), the Sumo tag was removed by SenP2 (obtained from MPIB Biochemistry Core Facility) digest overnight and the protein was further purified by SEC using TBS (20 mM Tris-HCl pH 7.5, 200 mM NaCl, 1 mM TCEP) containing 5% glycerol as running and storage buffer. After the final chromatography, the purity, integrity and identity of recombinant kindlin-2 and talin-1 head domain were controlled by UV spectrum, SDS-PAGE, high-resolution total mass and dynamic light scattering (DLS).
# All MST measurements were performed on a Monolith NT.115 red-blue (Nanotemper, Munich, Germany) using premium-coated capillaries to reduce non-specific interaction of the proteins with the glass surface. Both interaction partners (ligand and receptor) were transferred into MST buffer (20 mM Tris-HCl pH 7.5, 200 mM sodium chloride, 1 mM TCEP and 0.05% Tween-20) to avoid artifacts derived from buffer mismatches. […] Data was analyzed using the MO Affinity Analysis Software (Nanotemper). […]
# kindlin-1/2 = test: Peptide pulldown, kindlin-1/2; settings: desthiobiotin tail peptide on streptavidin beads, RAC-11P lysate, 4°C, 4 h; western blot; two repeats
# Procedure: as §2, §3
substance,measurement,setting,value
"HDRREFAKFEKEKMNAKWDTGENPIYKSAVTTVVNPKYEGK-OH [β1, synthetic integrin β1 cytoplasmic tail peptide]",binding to Numb by MST (β1),Numb-PTB (20-175),no binding; also recorded: unable to detect binding
same,interaction with KANK-2 in pulldown,KANK-2,interaction
same,interaction with talin in pulldown,talin,interaction
same,interaction with ARH in pulldown,ARH,"not β1 and β3, bind to Numb and ARH"
same,binding to ARH by MST (β1),full-length human ARH,no binding; also recorded: unable to detect binding
same,interaction with Numb in pulldown,Numb,"not β1 and β3, bind to Numb and ARH"
same,binding to kindlin by MST,kindlin-2,much higher affinity than β3 and β5
same,interaction with kindlin-1/2 in pulldown,kindlin-1/2,interaction
